Assay results as given in patent US20260097017A1, “TASIPIMIDINE AND CYP2D6 INHIBITOR COMBINATION TREATMENT” (ORION CORPORATION, priority 2022, published 2026).
Where two headings read alike, the source gives them in different places.

What was measured:
CYP2D6 [1] = biological target: T1, CYP2D6 (Homo sapiens, UniProt P10635); assay: CYP2D6 kinetic parameters (PBPK input parameters); type: in vitro ADME; conditions: input parameter of the PBPK model
Text: (§1) A physiologically based pharmacokinetic (PBPK) model was used to simulate the plasma exposure of tasipimidine in fasted healthy 30 years old males of 70 kg with different CYP2D6 phenotypes. Simulations were produced with the commercial GastroPlus® 9.8.2 software.

[2] = Caco-2 permeability (PBPK input parameter); type: in vitro ADME; conditions: human, input parameter of the PBPK model
Text: as §1

[3] = Renal clearance (PBPK input parameter); conditions: human, in vivo; input parameter of the PBPK model
Text: as §1

[4] = dogs, triggered by noise or owner departure; cited from earlier work
[5] = Physicochemical input parameters of the PBPK model; conditions: input parameter of the PBPK model
Text: as §1

CYP1A1 = biological target: T2, CYP1A1 (Homo sapiens, UniProt P04798); assay: Recombinant human CYP incubations (enzyme identification); type: in vitro ADME
T2 construct: purchased; host or cells: baculovirus-transfected insect cells
T2 sequence (P04798 1-512): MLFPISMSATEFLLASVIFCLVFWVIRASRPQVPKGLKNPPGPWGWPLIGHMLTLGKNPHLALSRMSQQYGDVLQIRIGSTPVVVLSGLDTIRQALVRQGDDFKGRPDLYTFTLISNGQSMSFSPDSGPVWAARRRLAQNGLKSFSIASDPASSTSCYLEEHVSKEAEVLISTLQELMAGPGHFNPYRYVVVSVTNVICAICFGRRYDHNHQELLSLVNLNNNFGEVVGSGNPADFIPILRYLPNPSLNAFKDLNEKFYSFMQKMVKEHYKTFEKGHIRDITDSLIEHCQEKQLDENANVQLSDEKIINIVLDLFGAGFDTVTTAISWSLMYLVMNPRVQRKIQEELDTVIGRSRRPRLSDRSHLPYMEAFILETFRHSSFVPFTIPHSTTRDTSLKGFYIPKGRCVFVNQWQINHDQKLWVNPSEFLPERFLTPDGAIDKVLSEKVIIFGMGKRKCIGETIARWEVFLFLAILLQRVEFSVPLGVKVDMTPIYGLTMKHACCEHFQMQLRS
Protocol: (§2) The objective of these studies was to identify enzymes involved in the metabolism of tasipimidine in human. The test substance tasipimidine and the reference compounds for main tasipimidine metabolites 1-(4,5-dihydro-1H-imidazol-2-yl) isochroman-5-ol (metabolite 1), 2-(5-methoxyisochroman-1-yl)-1H-imidazole (metabolite 2), and 1-(1H-imidazol-2-yl) isochroman-5-ol (metabolite 3) were supplied by Orion Pharma. To further support the findings of recombinant enzyme incubations tasipimidine was incubated with human hepatocytes with two enzyme inhibitors, i.e. 1-aminobenzotriazole (ABT, non-selective CYP inhibitor), and quinidine (CYP2D6 inhibitor).
(§3) The analysis for disappearance of tasipimidine and the identification of the formed metabolites were carried out by using a high-resolution liquid chromatographic-mass spectrometer supported by accurate masses (UPLC-HRMS). Firstly, metabolic stability of tasipimidine in different in vitro matrices was determined by monitoring the disappearance of the parent compound as a function of time. Moreover, structures of the formed metabolites were characterized from their respective product ion spectra. The synthetized reference compounds of the metabolites were used to confirm the identification of those specific metabolites.

CYP1A2 = biological target: T3, CYP1A2 (Homo sapiens, UniProt P05177); assay: as above; type: in vitro ADME
T3 construct: purchased; host or cells: baculovirus-transfected insect cells
T3 sequence (P05177 1-516): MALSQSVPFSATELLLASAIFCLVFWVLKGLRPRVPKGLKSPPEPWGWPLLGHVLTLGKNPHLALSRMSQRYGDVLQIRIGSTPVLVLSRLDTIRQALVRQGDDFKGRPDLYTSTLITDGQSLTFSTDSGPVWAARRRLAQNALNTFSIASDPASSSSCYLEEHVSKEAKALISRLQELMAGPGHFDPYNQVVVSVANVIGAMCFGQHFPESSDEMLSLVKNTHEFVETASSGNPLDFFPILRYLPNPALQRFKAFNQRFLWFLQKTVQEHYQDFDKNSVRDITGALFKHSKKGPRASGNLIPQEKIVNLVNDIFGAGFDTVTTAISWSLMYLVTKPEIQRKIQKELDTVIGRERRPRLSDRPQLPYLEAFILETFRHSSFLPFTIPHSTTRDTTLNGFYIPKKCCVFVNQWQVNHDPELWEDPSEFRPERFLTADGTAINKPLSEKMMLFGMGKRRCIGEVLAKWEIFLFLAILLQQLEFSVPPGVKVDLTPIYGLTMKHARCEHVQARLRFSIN
Protocol: as §2, §3

CYP2C19 = biological target: T4, CYP2C19 (Homo sapiens, UniProt P33261); assay: as above; type: in vitro ADME
T4 construct: purchased; host or cells: baculovirus-transfected insect cells
T4 sequence (P33261 whole entry): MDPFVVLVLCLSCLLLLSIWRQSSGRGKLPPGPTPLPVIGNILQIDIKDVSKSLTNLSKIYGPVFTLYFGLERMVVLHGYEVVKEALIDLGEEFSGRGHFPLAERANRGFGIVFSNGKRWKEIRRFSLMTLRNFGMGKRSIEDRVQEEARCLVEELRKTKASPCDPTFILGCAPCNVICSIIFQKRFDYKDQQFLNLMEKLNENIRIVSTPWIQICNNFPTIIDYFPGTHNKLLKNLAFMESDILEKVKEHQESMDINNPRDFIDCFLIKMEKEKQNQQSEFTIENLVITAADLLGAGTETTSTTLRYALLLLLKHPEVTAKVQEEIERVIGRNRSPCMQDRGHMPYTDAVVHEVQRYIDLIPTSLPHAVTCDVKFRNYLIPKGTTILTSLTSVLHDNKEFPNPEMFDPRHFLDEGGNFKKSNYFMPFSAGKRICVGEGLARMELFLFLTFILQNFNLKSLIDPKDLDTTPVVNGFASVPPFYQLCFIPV
Protocol: as §2, §3

CYP2D6 [6] = biological target: T1, CYP2D6; assay: Incubation with rhCYP2D6 Supersomes: intrinsic clearance and enzyme kinetics; type: in vitro ADME; set-up: purchased; host or cells: baculovirus-transfected insect cells
Protocol: as §2
(§4) Moreover, enzyme kinetics of tasipimidine metabolism was studied in rhCYP2D6.
(§5) Enzyme kinetics of tasipidimine metabolism by rhCYP2D6 was studied by incubating the test compound at 0.16, 0.41, 1, 2.6, 6.4, 16, 40 and 100 μM concentrations containing 10 pmol/ml of the CYP enzyme for 0, 5, 10, 20, and 30 min. Enzyme kinetics was estimated from CLint values measured for the test compound at different concentrations while metabolite characterisation was not performed.
(§6) The analysis for disappearance of tasipimidine and the identification of the formed metabolites were carried out by using a high-resolution liquid chromatographic-mass spectrometer supported by accurate masses (UPLC-HRMS). […]

[7] = Blood to plasma ratio and fraction unbound in plasma (PBPK input parameters); type: in vitro ADME; conditions: human, input parameter of the PBPK model
Text: as §1

[8] = First-in-man single-dose escalation study, plasma PK; type: in vivo; conditions: both sexes, human, po, mean
Protocol: The first-in-man study was a randomized, double-blind, placebo-controlled, single-dose escalation study with healthy female and male subjects aged 18-44 years. The subjects were allocated to cohorts of 8 subjects of which 6 received active treatment and 2 received placebo. Each subject received either 1 dose of tasipimidine oral solution or 1 dose of placebo oral solution during the study. The studied doses of tasipimidine were 10, 25, 50, 100, and 150 μg as oral solution.
(§7) The subjects were genotyped for CYP2D6 on screening. The translation of CYP2D6 genotype to CYP2D6 phenotype was done according to the national consensus published by the Dutch Pharmacogenetics Working Group from KNMP (https://www.knmp.nl/index.php/media/113). The subjects with CYP2D6 poor metabolizer genotype were excluded from the study. The translation of CYP2D6 genotype to activity score was done according to the CYP2D6 Allele Functionality Table of PharmGKB (https://www.pharmgkb.org/page/cyp2d6RefMaterials).
Frequent blood samples were taken through an intravenous cannula for the assessment of the concentration of tasipimidine and its metabolite 1 in plasma. The sampling times were before (0 h) and 15 min, 30 min, 45 min, 1, 1.5, 2, 3, 4, 5, 6, 8, 10, 12, 16, and 24 hours after the study treatment administration. The PK parameters were calculated from the plasma concentration-time data by noncompartmental method using the commercial Phoenix WinNonlin software version 8.3.

[9] = Paroxetine co-treatment crossover PK study in healthy subjects; type: in vivo, human; conditions: 10 μg oral, mean, n = 5; for AUC(0-inf) / Cmax / half-life: human, plasma; for half-life: read-out: t½ (converted)
Protocol: Effect of co-treatment with a strong CYP2D6 inhibitor paroxetine on the PK of tasipimidine was studied. The study was an open label, crossover study with 5 healthy female and/or male subjects aged 26-51 years. The study started with a 8 days long once daily treatment of paroxetine 20 mg tablet. On the last day of paroxetine treatment, a single 10 μg dose of tasipimidine as oral solution was administered 1 h after the paroxetine intake after an overnight fast.
as §7
Frequent blood samples were taken through an intravenous cannula for the assessment of the concentration of tasipimidine and its metabolite 1 in plasma. The sampling times were before (0 h) and 20 min, 40 min, 1, 1.5, 2, 2.5, 3, 3.5, 4, 5, 6, 8, 12, 24, 36, and 48 hours after the study treatment administration. The PK parameters were calculated from the plasma concentration-time data by noncompartmental method using the commercial Phoenix WinNonlin software version 8.3.

[10] = background statement; cited from earlier work
[11] = substrate: COc1cccc2c1CCOC2C1=NCCN1; assay: Incubation with rhCYP2D6 Supersomes: intrinsic clearance and enzyme kinetics; type: in vitro ADME, human; conditions: other: rhCYP2D6, 0.16-100 μM, 10 pmol/ml CYP
Protocol: as §2, §4, §5, §6

[12] = substrate: COc1cccc2c1CCOC2C1=NCCN1; assay: CYP2D6 kinetic parameters (PBPK input parameters); type: in vitro ADME; conditions: other: input parameter of the PBPK model
Text: as §1

[13] = with paroxetine 20 mg once daily for 8 days

COc1cccc2c1CCOC2C1=NCCN1 (stereo not drawn) [tasipimidine, 2-(5-methoxyisochroman-1-yl)-4,5-dihydro-1H-imidazole]
Vmax for CYP2D6 (CYP2D6 [1]): 0.000043 mg/s
Papp [2]: 15.4 ×10⁻⁶ cm/s
CL renal [3]: 105 mL/min
relief of situational anxiety and fear [4]: effective in relieving situational anxiety and fear
logP [5]: 1.66
pKa [5]: 9.24
contribution of enzyme to tasipimidine metabolism (CYP1A1): minor contributors
contribution of enzyme to tasipimidine metabolism (CYP1A2): minor contributors
contribution of enzyme to tasipimidine metabolism (CYP2C19): minor contributors
contribution of enzyme to tasipimidine metabolism (CYP2D6 [6]; CYP2D6, human in vitro systems): major enzyme
intrinsic clearance (CLint) (CYP2D6 [6]; tasipimidine 1 μM in rhCYP2D6): 1.75 μl/min/pmol CYP
blood plasma ratio ([7]; blood and plasma): 1.13
fraction unbound ([7]; plasma): 0.86
AUC(0-inf) ([8]; 10 ug, 10 μg single oral dose, corrected by CYP2D6 genotype based activity score, n = 6, read-out: AUCinf * AS): 0.09 ng·h/mL
AUC(0-inf) ([8]; 10 ug, 10 μg single oral solution dose, n = 6, healthy subjects, read-out: AUCinf): 0.052 ng·h/mL
AUC(0-inf) ([8]; 25 ug, 25 μg single oral dose, corrected by CYP2D6 genotype based activity score, n = 6, read-out: AUCinf * AS): 0.254 ng·h/mL
AUC(0-inf) ([8]; 25 ug, 25 μg single oral solution dose, n = 6, healthy subjects, read-out: AUCinf): 0.186 ng·h/mL
AUC(0-inf) ([8]; 50 ug, 50 μg single oral dose, corrected by CYP2D6 genotype based activity score, n = 6, read-out: AUCinf * AS): 0.475 ng·h/mL
AUC(0-inf) ([8]; 50 ug, 50 μg single oral solution dose, n = 6, healthy subjects, read-out: AUCinf): 0.36 ng·h/mL
AUC(0-inf) ([8]; 100 ug, 100 μg single oral dose, corrected by CYP2D6 genotype based activity score, n = 6, read-out: AUCinf * AS): 1.03 ng·h/mL
AUC(0-inf) ([8]; 100 ug, 100 μg single oral solution dose, n = 6, healthy subjects, read-out: AUCinf): 1.03 ng·h/mL
AUC(0-inf) ([8]; 150 ug, 150 μg single oral dose, corrected by CYP2D6 genotype based activity score, n = 6, read-out: AUCinf * AS): 2.03 ng·h/mL
AUC(0-inf) ([8]; 150 ug, 150 μg single oral solution dose, n = 6, healthy subjects, read-out: AUCinf): 1.74 ng·h/mL
AUCinf ratio with/without paroxetine [9]: 3.1
Cmax ratio with/without paroxetine [9]: 1.9
t½ ratio with/without paroxetine [9]: 1.7
AUC(0-inf) ([9]; 10 ug, without paroxetine): 0.106 ng·h/mL
Cmax ([9]; 10 ug, without paroxetine): 0.026 ng/mL
half-life ([9]; 10 ug, without paroxetine): 2.6 h
AUC(0-inf) [9, 13]: 0.281 ng·h/mL
Cmax [9, 13]: 0.047 ng/mL
half-life [9, 13]: 4.3 h

Clc1cccc(Cl)c1N=C1NCCN1 [clonidine]
elimination half-life (t1/2) [10]: 14 h

B1: rhCYP2D6 (Homo sapiens) (protein)
chain: MGLEALVPLAVIVAIFLLLVDLMHRRQRWAARYPPGPLPLPGLGNLLHVDFQNTPYCFDQLRRRFGDVFSLQLAWTPVVVLNGLAAVREALVTHGEDTADRPPVPITQILGFGPRSQGVFLARYGPAWREQRRFSVSTLRNLGLGKKSLEQWVTEEAACLCAAFANHSGRPFRPNGLLDKAVSNVIASLTCGRRFEYDDPRFLRLLDLAQEGLKEESGFLREVLNAVPVLLHIPALAGKVLRFQKAFLTQLDELLTEHRMTWDPAQPPRDLTEAFLAEMEKAKGNPESSFNDENLRIVVADLFSAGMVTTSTTLAWGLLLMILHPDVQRRVQQEIDDVIGQVRRPEMGDQAHMPYTTAVIHEVQRFGDIVPLGVTHMTSRDIEVQGFRIPKGTTLITNLSSVLKDEAVWEKPFRFHPEHFLDAQGHFVKPEAFLPFSAGRRACLGEPLARMELFLFFTSLLQHFSFSVPTGQPRPSHHGVFAFLVSPSPYELCAVPR
notes: purchased; host or cells: baculovirus-transfected insect cells
Km [11]: 0.53 µM
kcat [11]: 3.1 pmol/min/pmol CYP

B2: CYP2D6 (Homo sapiens) (protein)
chain: B1 chain
Km [12]: 0.106 mg/L
